Assay results published in PubChem BioAssay (NCI).
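Cultured in 96-well plates, cells were exposed to test compound for 48 hours across five concentrations. TGI denotes the concentration required for complete inhibition of growth.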

Tests used:
Test in all cases: NCI tumour cell line growth inhibition, 48 h
LOX IMVI melanoma = test system: LOX IMVI melanoma
OVCAR-4 ovarian = test system: OVCAR-4 ovarian
ACHN renal = test system: ACHN renal
EKVX NSCLC = test system: EKVX NSCLC
HCT-15 colon = test system: HCT-15 colon
KM12 colon = test system: KM12 colon
MCF7 breast = test system: MCF7 breast
HCC-2998 colon = test system: HCC-2998 colon
SK-MEL-2 melanoma = test system: SK-MEL-2 melanoma
HOP-92 NSCLC = test system: HOP-92 NSCLC
SF-268 CNS = test system: SF-268 CNS
IGROV1 ovarian = test system: IGROV1 ovarian
SK-MEL-5 melanoma = test system: SK-MEL-5 melanoma
SR leukemia = test system: SR leukemia
UACC-257 melanoma = test system: UACC-257 melanoma
NCI-H226 lung = test system: NCI-H226 lung
UO-31 renal = test system: UO-31 renal
HOP-62 NSCLC = test system: HOP-62 NSCLC
PC-3 prostate = test system: PC-3 prostate
SN12C renal = test system: SN12C renal
NCI/ADR-RES ovarian = test system: NCI/ADR-RES ovarian
SF-295 CNS = test system: SF-295 CNS
HS 578T breast = test system: HS 578T breast
K-562 leukemia = test system: K-562 leukemia
OVCAR-5 ovarian = test system: OVCAR-5 ovarian
DU-145 prostate = test system: DU-145 prostate
COLO 205 colon = test system: COLO 205 colon
786-0 renal = test system: 786-0 renal
SK-MEL-28 melanoma = test system: SK-MEL-28 melanoma
MOLT-4 leukemia = test system: MOLT-4 leukemia
A498 renal = test system: A498 renal
SNB-19 CNS = test system: SNB-19 CNS
NCI-H460 lung = test system: NCI-H460 lung
NCI-H522 lung = test system: NCI-H522 lung
U251 CNS = test system: U251 CNS
OVCAR-8 ovarian = test system: OVCAR-8 ovarian
TK-10 renal = test system: TK-10 renal
MDA-N = test system: MDA-N
HL-60(TB) leukemia = test system: HL-60(TB) leukemia
BT-549 breast = test system: BT-549 breast
HT29 colon = test system: HT29 colon
A549 NSCLC = test system: A549 NSCLC
NCI-H23 lung = test system: NCI-H23 lung
SNB-75 CNS = test system: SNB-75 CNS
MDA-MB-231 breast = test system: MDA-MB-231 breast
RPMI-8226 leukemia = test system: RPMI-8226 leukemia
CAKI-1 renal = test system: CAKI-1 renal
SW-620 colon = test system: SW-620 colon
OVCAR-3 ovarian = test system: OVCAR-3 ovarian
CCRF-CEM leukemia = test system: CCRF-CEM leukemia
SF-539 CNS = test system: SF-539 CNS
RXF 393 renal = test system: RXF 393 renal
SK-OV-3 ovarian = test system: SK-OV-3 ovarian
MDA-MB-435 = test system: MDA-MB-435
M14 melanoma = test system: M14 melanoma
HCT-116 colon = test system: HCT-116 colon
T-47D breast = test system: T-47D breast
UACC-62 melanoma = test system: UACC-62 melanoma
MALME-3M melanoma = test system: MALME-3M melanoma

`CCc1nc(N)nc(N)c1-c1ccc([N+](=O)[O-])c(NCc2ccccc2)c1` was tested, and the TGI (LOX IMVI melanoma) was 45.4 µM, the TGI (OVCAR-4 ovarian) was 58.1 µM and the TGI (ACHN renal) was 30.5 µM. For the same compound, the TGI (EKVX NSCLC) was 41.6 µM, the TGI (HCT-15 colon) was 38.2 µM and the TGI (KM12 colon) was 49.2 µM. For the same compound, the TGI (MCF7 breast) was 40.2 µM, the TGI (HCC-2998 colon) was 36.7 µM and the TGI (SK-MEL-2 melanoma) was 50.2 µM. For the same compound, the TGI (HOP-92 NSCLC) was 25.9 µM, the TGI (SF-268 CNS) was 40.3 µM and the TGI (IGROV1 ovarian) was 26.3 µM. For the same compound, the TGI (SK-MEL-5 melanoma) was 22.9 µM, the TGI (SR leukemia) was 31.1 µM and the TGI (UACC-257 melanoma) was 30.9 µM. The TGI (NCI-H226 lung) was 46.8 µM, the TGI (UO-31 renal) was 22.2 µM and the TGI (HOP-62 NSCLC) was 28.9 µM. The TGI (PC-3 prostate) was 39.9 µM, the TGI (SN12C renal) was 44.5 µM and the TGI (NCI/ADR-RES ovarian) was 38.2 µM. It also gave a TGI (SF-295 CNS) of 28.4 µM, a TGI (HS 578T breast) of 51.4 µM and a TGI (K-562 leukemia) of 20.7 µM. The TGI (OVCAR-5 ovarian) was > 100 µM, the TGI (DU-145 prostate) was 31.5 µM and the TGI (COLO 205 colon) was 35 µM. The TGI (786-0 renal) was 29.8 µM, the TGI (SK-MEL-28 melanoma) was 35.1 µM and the TGI (MOLT-4 leukemia) was 26.6 µM. It also gave a TGI (A498 renal) of 32.9 µM, a TGI (SNB-19 CNS) of 38.9 µM and a TGI (NCI-H460 lung) of 20.2 µM. The TGI (NCI-H522 lung) was 35.6 µM, the TGI (U251 CNS) was 30.1 µM and the TGI (OVCAR-8 ovarian) was 42.2 µM. The TGI (TK-10 renal) was 53.2 µM, the TGI (MDA-N) was 34.8 µM and the TGI (HL-60(TB) leukemia) was 18.7 µM. The TGI (BT-549 breast) was 47.1 µM, the TGI (HT29 colon) was 23.2 µM and the TGI (A549 NSCLC) was 24.8 µM. The TGI (NCI-H23 lung) was > 60.6 µM, the TGI (SNB-75 CNS) was 35.4 µM and the TGI (MDA-MB-231 breast) was 38.1 µM. For the same compound, the TGI (RPMI-8226 leukemia) was 32.2 µM, the TGI (CAKI-1 renal) was 29.3 µM and the TGI (SW-620 colon) was 42.9 µM. It also gave a TGI (OVCAR-3 ovarian) of 36.6 µM, a TGI (CCRF-CEM leukemia) of 32.5 µM and a TGI (SF-539 CNS) of 39.3 µM. The TGI (RXF 393 renal) was 52.7 µM, the TGI (SK-OV-3 ovarian) was > 55.1 µM and the TGI (MDA-MB-435) was 38.3 µM. For the same compound, the TGI (M14 melanoma) was 39.9 µM, the TGI (HCT-116 colon) was > 47.3 µM and the TGI (T-47D breast) was > 46.8 µM. For the same compound, the TGI (UACC-62 melanoma) was 35.7 µM.
With `CCOc1ccc(N=Nc2ccc3cc(/C(C)=N/NC(=O)/C(C#N)=C\c4ccc(N(CCC#N)CCC#N)cc4)c(=O)oc3c2)cc1` the TGI (LOX IMVI melanoma) was > 10 µM, the TGI (OVCAR-4 ovarian) was > 10 µM and the TGI (ACHN renal) was > 10 µM. The TGI (EKVX NSCLC) was > 10 µM, the TGI (HCT-15 colon) was > 10 µM and the TGI (KM12 colon) was > 10 µM. For the same compound, the TGI (MCF7 breast) was > 10 µM, the TGI (HCC-2998 colon) was > 10 µM and the TGI (SK-MEL-2 melanoma) was > 10 µM. The TGI (HOP-92 NSCLC) was > 10 µM, the TGI (SF-268 CNS) was > 10 µM and the TGI (IGROV1 ovarian) was > 10 µM. For the same compound, the TGI (SK-MEL-5 melanoma) was > 10 µM, the TGI (SR leukemia) was > 10 µM and the TGI (UACC-257 melanoma) was > 10 µM. The TGI (NCI-H226 lung) was > 10 µM, the TGI (UO-31 renal) was > 10 µM and the TGI (HOP-62 NSCLC) was > 10 µM. For the same compound, the TGI (PC-3 prostate) was > 10 µM, the TGI (SN12C renal) was > 10 µM and the TGI (NCI/ADR-RES ovarian) was > 10 µM. For the same compound, the TGI (SF-295 CNS) was > 10 µM, the TGI (HS 578T breast) was > 10 µM and the TGI (K-562 leukemia) was > 10 µM. The TGI (OVCAR-5 ovarian) was > 10 µM, the TGI (DU-145 prostate) was > 10 µM and the TGI (COLO 205 colon) was > 10 µM. The TGI (786-0 renal) was > 10 µM, the TGI (SK-MEL-28 melanoma) was > 10 µM and the TGI (MALME-3M melanoma) was > 10 µM. For the same compound, the TGI (MOLT-4 leukemia) was > 10 µM, the TGI (A498 renal) was > 10 µM and the TGI (SNB-19 CNS) was > 10 µM. For the same compound, the TGI (NCI-H460 lung) was > 10 µM, the TGI (NCI-H522 lung) was > 10 µM and the TGI (U251 CNS) was > 10 µM. The TGI (OVCAR-8 ovarian) was > 10 µM, the TGI (TK-10 renal) was > 10 µM and the TGI (MDA-N) was > 10 µM. The TGI (HL-60(TB) leukemia) was > 10 µM, the TGI (BT-549 breast) was > 10 µM and the TGI (HT29 colon) was > 10 µM. The TGI (A549 NSCLC) was > 10 µM, the TGI (NCI-H23 lung) was > 10 µM and the TGI (SNB-75 CNS) was > 10 µM. For the same compound, the TGI (MDA-MB-231 breast) was > 10 µM, the TGI (RPMI-8226 leukemia) was > 10 µM and the TGI (CAKI-1 renal) was > 10 µM. The TGI (SW-620 colon) was > 10 µM, the TGI (OVCAR-3 ovarian) was > 10 µM and the TGI (CCRF-CEM leukemia) was > 10 µM. For the same compound, the TGI (SF-539 CNS) was > 10 µM, the TGI (RXF 393 renal) was > 10 µM and the TGI (SK-OV-3 ovarian) was > 10 µM. The TGI (MDA-MB-435) was > 10 µM, the TGI (M14 melanoma) was > 10 µM and the TGI (HCT-116 colon) was > 10 µM. For the same compound, the TGI (T-47D breast) was > 10 µM and the TGI (UACC-62 melanoma) was > 10 µM.
With `Cc1cn(CCCCCOC(=O)NC(CCCNC(N)=O)C(=O)O)c(=O)[nH]c1=O` (stereo not drawn) the TGI (LOX IMVI melanoma) was > 100 µM, the TGI (OVCAR-4 ovarian) was > 100 µM and the TGI (ACHN renal) was > 100 µM. For the same compound, the TGI (EKVX NSCLC) was > 100 µM, the TGI (HCT-15 colon) was > 100 µM and the TGI (KM12 colon) was > 100 µM. The TGI (MCF7 breast) was > 100 µM, the TGI (HCC-2998 colon) was > 100 µM and the TGI (SK-MEL-2 melanoma) was > 100 µM. The TGI (HOP-92 NSCLC) was > 100 µM, the TGI (SF-268 CNS) was > 100 µM and the TGI (IGROV1 ovarian) was > 100 µM. The TGI (SR leukemia) was > 100 µM, the TGI (UACC-257 melanoma) was > 100 µM and the TGI (NCI-H226 lung) was > 100 µM. The TGI (UO-31 renal) was > 100 µM, the TGI (HOP-62 NSCLC) was > 100 µM and the TGI (PC-3 prostate) was > 100 µM. For the same compound, the TGI (SN12C renal) was > 100 µM, the TGI (NCI/ADR-RES ovarian) was > 100 µM and the TGI (SF-295 CNS) was > 100 µM. The TGI (HS 578T breast) was > 100 µM, the TGI (K-562 leukemia) was > 100 µM and the TGI (OVCAR-5 ovarian) was > 100 µM. The TGI (DU-145 prostate) was > 100 µM, the TGI (COLO 205 colon) was > 100 µM and the TGI (786-0 renal) was > 100 µM. The TGI (SK-MEL-28 melanoma) was > 100 µM, the TGI (MOLT-4 leukemia) was > 100 µM and the TGI (A498 renal) was > 100 µM. The TGI (SNB-19 CNS) was > 100 µM, the TGI (NCI-H460 lung) was > 100 µM and the TGI (U251 CNS) was > 100 µM. For the same compound, the TGI (OVCAR-8 ovarian) was > 100 µM, the TGI (TK-10 renal) was > 100 µM and the TGI (MDA-N) was > 100 µM. The TGI (HL-60(TB) leukemia) was > 100 µM, the TGI (BT-549 breast) was > 100 µM and the TGI (HT29 colon) was > 100 µM. The TGI (A549 NSCLC) was > 100 µM, the TGI (NCI-H23 lung) was > 100 µM and the TGI (SNB-75 CNS) was > 100 µM. For the same compound, the TGI (MDA-MB-231 breast) was > 100 µM, the TGI (RPMI-8226 leukemia) was > 100 µM and the TGI (CAKI-1 renal) was > 100 µM. The TGI (SW-620 colon) was > 100 µM, the TGI (OVCAR-3 ovarian) was > 100 µM and the TGI (CCRF-CEM leukemia) was > 100 µM. The TGI (SF-539 CNS) was > 100 µM, the TGI (RXF 393 renal) was > 100 µM and the TGI (SK-OV-3 ovarian) was > 100 µM. For the same compound, the TGI (MDA-MB-435) was > 100 µM, the TGI (M14 melanoma) was > 100 µM and the TGI (HCT-116 colon) was > 100 µM. For the same compound, the TGI (T-47D breast) was > 100 µM and the TGI (UACC-62 melanoma) was > 100 µM.
